# Laboratory results taken from patent US20080193550A1, “Cla-Enriched Milkfat and Uses Thereof” (FONTERRA CORPORATE RESEARCH AND DEVELOPMENT LIMITED, priority 2004, published 2008).
# Experiments:
# OVA-specific IgG1 = OVA-specific IgG1 in serum by ELISA; assay type: in vivo, C57BL/6 mice; details: Table 10; 0.07% (w/w) in diet; OVA challenged mice
# Protocol: (§1) Body weights were determined, and blood samples collected via the tail vein, prior to assignment of mice to particular diets. After two weeks on an assigned diet mice were immunized with two intraperitoneal (i.p.) injections of 20 μg of OVA (chicken egg albumin grade V; Sigma Chemical Co., St Louis, Mo.) complexed with 2 mg of Imject Alum (Al(OH)3/Mg(OH)2; Pierce Rockford Ill.) in a total volume of 100 μl of PBS on days 0 and 14. Two weeks after the 2nd injection mice were anaesthetized by i.p. injection of a mixture of ketamine and xylazine (Phoenix, Auckland, New Zealand), and challenged intranasally with 100 μg of OVA in 50 μl of PBS. Undiseased control mice were immunized and challenged with PBS using a similar regime. Body weights were determined, and blood, bronchoalveolar lavage (BAL) fluid, and lung tissue samples were collected 6 days after the intranasal challenge. Blood was collected by cardiac puncture after deeply anaesthetizing mice by i.p. injection of a mixture of ketamine and xylazine. Serum was separated from blood samples, and stored at −80° C.
# (§2) OVA-specific IgG1 in serum samples was measured by standard ELISA employing 96 well microtitre plates (Nunc Maxisorp). Plates were coated with 100 μl of 0.1 M carbonate buffer, pH 9.5, containing 10 μg/ml of OVA (Sigma) overnight at 4° C. After 3 washes with PBS-T (PBS with 0.05% Tween-20) plates were blocked with 200 μl of 3% BSA in PBS, pH 7.2, at room temperature for 90 min. One hundred microlitres of each serum sample (diluted 1:40) was added in triplicate to the wells, and incubated for 2 h at 37° C. Wells were washed four times with PBS-T and 100 μl of goat anti-mouse IgG1-HRP conjugated antibody (Bethyl Laboratories, USA) was added at 1:50,000 dilution. Plates were incubated for 1 h at 37° C., washed 5 times with PBS-T, and 100 μl of peroxidase enzyme substrate o-phenylene diamine (OPD, Sigma Chemical Co, St Louis, Mo.) was added to each well. The colour reaction was stopped after ˜20 min by addition of 50 μl of 4 M H2SO4 to each well. Absorbance was read at 490 nm in a BioRad microplate ELISA reader. Positive and negative sera were used as controls.
# OVA challenged mice [1] = test: Mucus index score: Schiff staining of airway epithelia; assay type: in vivo, C57BL/6 mice; details: 0.07% (w/w) in diet; for Suppression (inhibition) of mucus production: Example 9, compared to control diet, significance not reached; for Mucus Index Score (Mean ± SEM): Table 7, scale 0-4
# Protocol: as §1
# (§3) Following BAL, the right lobes of lungs were immediately frozen in dry ice and stored at −80° C. for protein and Western blot analysis. The left lobes of lungs were fixed in 4% paraformaldehyde in 0.1 M PBS (pH 7.4) overnight and embedded either in optimum cutting temperature compound (OCT, Tissue Tek) and kept frozen at −80° C. until cryosectioning for immunohistochemistry, or in paraffin for routine histopathological analysis. Some were stained with a combined hematoxylin-Biebrich Scarlet solution by Luna's method for eosinophils to detect eosinophil granules (34) or with Alcian Blue-Periodic Acid Schiff for the detection of acid and neutral mucins and identification of goblet cells.
# The level of Schiff staining of airway epithelia was semi-quantitatively determined to give a mucus index score as described (38), but modified in that Schiff staining was scored by microscopic viewing of airways. A minimum of 4 to 6 representative transversely or sagittally sectioned airways were graded per animal using a scale of 0 (no staining), 1 (25% or less of the airway epithelium stained), 2 (26-50% of the airway epithelium stained), 3 (51-75% of the airway epithelium stained), and 4 ([…]). Airways were analysed only when the complete circumference of the airway could be visualized, and those that opened directly into an alveolar space were not included.
# OVA challenged mice [2] = test: Histopathology score of lung airway changes; assay type: in vivo, C57BL/6 mice; details: 0.07% (w/w) in diet; for Inhibition of allergen-specific remodelling and inflammation of the lung, in words: Example 10; for Histopathology score (Mean ± SEM): Table 8
# Protocol: as §1, §3
# The histopathology score was determined from inspection of alcian blue-PAS stained paraffin embedded sections of the left lung of each animal. Lung inflammation, perivascular/peribronchiolar infiltrates, airway epithelial hypertrophy, goblet-cell hyperplasia, constriction of bronchioles, mucin hypersecretion, and beneficial presence of phagocytic macrophages were graded on a scale of 0 (no change) to 4 (marked change). Each animal received an overall histopathology score based on summation of individual scores for each criteria. All slides were scored in a blinded fashion (blinded to diet treatment/group assignment), and scores were presented as the mean±SEM of 4-6 animals/group.
# OVA-specific IgE = OVA-specific IgE in serum by ELISA; assay type: in vivo, C57BL/6 mice; details: Table 9; 0.07% (w/w) in diet; OVA challenged mice
# Protocol: as §1, §2
# OVA-specific IgE was measured as for OVA-specific IgG1 except serum samples were diluted 1:5, and OVA was coated on plates at 100 μg/ml (35). A biotin-conjugated rat anti-mouse IgE monoclonal antibody (diluted 1:200; Pharmingen, San Diego, Calif.) was used to detect OVA-specific IgE antibody, and was detected with avidin-HRP conjugate (diluted 1:250) followed by development with OPD.
# OVA challenged mice [3] = test: Inflammatory cell infiltration into the lung: total and differential BAL cell counts after OVA challenge; assay type: in vivo, C57BL/6 mice; details: Example 8, 0.07% (w/w) in diet; for Reduction in numbers of lymphocytes in BAL / Reduction in numbers of monocytes/macrophages in BAL / Reduction of total BAL cell counts / Suppression of accumulation of eosinophils in BAL: compared to control diet
# Protocol: Eight to nine week old male and female C57BL/6 mice (University of Auckland, New Zealand) were kept on an ovalbumin (OVA)-free normal mouse chow diet from weaning up until they were assigned to a particular diet (control or experimental diet). Each diet group (n=6) contained an equal number of male and female mice. Throughout the study period mice were kept in an air-conditioned room with controlled humidity, temperature, and a 12 h light:dark cycle.
# as §1
# Bronchoalveolar lavage was performed immediately after euthanasia by flushing 1 ml of PBS containing 1% heat inactivated fetal calf serum (lavage buffer) thrice through the lung and airways of mice via the cannulated trachea. The recovered BAL was pooled for each animal, centrifuged at 1,500 rpm at 4° C., and the supernatant stored at −80° C. The cell pellets were resuspended in 1 ml of lavage buffer, and total cell numbers were counted using a hemocytometer. BAL cells were centrifuged onto poly-L-lysine-coated glass slides using a cytospin, and stained with Diff-Quik stain (Dade Behring Inc. USA). Differential cellular counts were made by counting ≧300 cells under light microscopy (Nikon E200 microscope), using standard morphological criteria.
# liver = details: fed to mice at 0.4% w/w for 4 weeks; cited from earlier work
Compound,"IgG Values, Average (allergen-specific IgG responses) (OVA-specific IgG1)",Suppression (inhibition) of mucus production (OVA challenged mice [1]) [%],Mucus Index Score (Mean ± SEM) (OVA challenged mice [1]),"Inhibition of allergen-specific remodelling and inflammation of the lung, in words (OVA challenged mice [2])",Histopathology score (Mean ± SEM) (OVA challenged mice [2]),"Histopathology score (Mean ± SEM) (OVA challenged mice [2]; listed as free fatty acid form of the c-9, t-11 isomer)","IgE Values, Average (allergen-specific IgE responses) (OVA-specific IgE)",Reduction in numbers of lymphocytes in BAL (OVA challenged mice [3]) [%],Reduction in numbers of monocytes/macrophages in BAL (OVA challenged mice [3]) [%],Reduction of total BAL cell counts (OVA challenged mice [3]) [%],Suppression of accumulation of eosinophils in BAL (OVA challenged mice [3]) [%],"Effect on the liver, in words (liver)","Eosinophil count compared to the control diet, in words (OVA challenged mice [3])","Lymphocyte count compared to the control diet, in words (OVA challenged mice [3])","Monocyte/macrophages count compared to the control diet, in words (OVA challenged mice [3])","Total BAL count compared to the control diet, in words (OVA challenged mice [3])"
"CCCCCC/C=C/C=C\CCCCCCCC(=O)O (single isomer, unassigned) [Synthetic c-9, t-11 CLA isomer Free fatty acid, c-9, t-11 CLA]",1.91,32,2.04 ± 1.13,able to significantly inhibit,2.02 ± 0.66,2.02,0.89,72,61,74,87,–,–,–,–,–
"CCCCC/C=C\C=C\CCCCCCCCC(=O)O (single isomer, unassigned) [Synthetic t-10, c-12 CLA isomer Free Fatty Acid, t-10, c-12 CLA, reference compound]",1.95,7,2.80 ± 1.35,–,3.28 ± 0.46,–,1.25,–,–,–,–,–,–,–,–,–
"c-9, t-11 CLA [Synthetic c-9, t-11 CLA isomer Triglyceride]",1.96,15,2.58 ± 0.94,–,3.08 ± 0.69,–,1.17,43,53,56,62,–,–,–,–,–
"t-10, c-12 CLA [Synthetic t-10, c-12 CLA isomer Triglyceride, reference compound]",1.98,15,2.57 ± 1.16,–,3.20 ± 0.79,–,1.29,–,–,–,–,–,–,–,–,–
"t-10, c-12 CLA [t-10, c-12 CLA isomer, reference compound]",–,–,–,not effective,–,–,–,–,–,–,–,dramatic enlargement of the liver with steatosis,no significant difference,no significant difference,no significant difference,no significant difference
